Reference: patent US6548495B2, “Dihydro-benzo [B] [1,4] diazepin-2-one derivatives” (Hoffmann-La Roche Inc., priority 2002, dated 2003)

What was measured:
[1] = target: T1, recombinant rat mGluR2 expressed in CHO cells (Rattus norvegicus, UniProt P31421); assay: [3H]-LY354740 binding on mGlu2 transfected CHO cell membranes (displacement binding assay); settings: displacement of 10 nM [3H]-LY354740, membranes of CHO cells expressing rat mGlu2, room temperature, 1 hour; Ki calculated from IC50 with the Cheng and Prusoff equation
T1 construct: expressed in transfected cells; host or cells: CHO cells, stably transfected with pcD1mGR2 (pcDNA I-amp), G-418 selected; membranes used
T1 sequence (P31421 19-872): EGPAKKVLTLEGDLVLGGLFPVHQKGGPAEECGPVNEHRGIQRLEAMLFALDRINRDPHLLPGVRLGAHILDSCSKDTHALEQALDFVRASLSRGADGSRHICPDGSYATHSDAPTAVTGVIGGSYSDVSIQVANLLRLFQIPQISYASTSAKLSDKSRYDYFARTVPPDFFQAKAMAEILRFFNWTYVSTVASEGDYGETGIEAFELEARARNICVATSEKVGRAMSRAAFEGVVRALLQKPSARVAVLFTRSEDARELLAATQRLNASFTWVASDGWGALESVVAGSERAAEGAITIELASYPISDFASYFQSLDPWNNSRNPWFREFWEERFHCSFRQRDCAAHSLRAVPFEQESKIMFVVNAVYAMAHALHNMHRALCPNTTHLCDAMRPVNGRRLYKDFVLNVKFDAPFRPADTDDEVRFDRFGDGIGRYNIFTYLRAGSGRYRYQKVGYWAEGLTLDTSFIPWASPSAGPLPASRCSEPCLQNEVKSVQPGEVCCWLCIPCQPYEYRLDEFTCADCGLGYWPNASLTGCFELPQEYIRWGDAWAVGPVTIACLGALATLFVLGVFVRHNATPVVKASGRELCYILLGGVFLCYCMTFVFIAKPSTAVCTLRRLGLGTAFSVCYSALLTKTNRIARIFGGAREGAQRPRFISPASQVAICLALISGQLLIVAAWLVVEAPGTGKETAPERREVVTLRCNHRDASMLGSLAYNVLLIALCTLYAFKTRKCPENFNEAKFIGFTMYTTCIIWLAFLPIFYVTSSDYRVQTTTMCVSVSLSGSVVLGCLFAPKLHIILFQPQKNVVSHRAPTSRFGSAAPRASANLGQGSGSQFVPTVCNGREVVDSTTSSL
Excerpt: In Table I below some specific Ki values of preferred compounds of the invention are presented. These values were obtained by indirect measurement of the affinity of the compounds for the recombinant rat mGluR2 expressed in CHO cells using a displacement binding assay with 3H-LY354740.
[^3H]-LY354740 Binding on mGlu2 Transfected CHO Cell Membranes
Transfection and Cell Culture
cDNA encoding the rat mGlu2 receptor protein in pBluescript II was obtained from Prof. S. Nakanishi (Kyoto, Japan), and subcloned into the eukaryotic expression vector pcDNA I-amp from Invitrogen (NV Leek, The Netherlands). This vector construct (pcD1mGR2) was co-transfected with a psvNeo plasmid encoding the gene for neomycin resistance, into CHO cells by a modified calcium phosphate method described by Chen & Okayama (1988). The cells were maintained in Dulbecco's Modified Eagle medium with reduced L-glutamine (2 mM final concentration) and 10% dialysed foetal calf serum from Gibco BRL (Basel, Switzerland). Selection was made in the presence of G-418 (1000 ug/mL final). Clones were identified by reverse transcription of 5 μg total RNA, followed by PCR using mGlu2 receptor specific primers 5′-[…]-3′ and 5′-[…]-3′ in 60 mM Tris HCl (pH 10), 15 mM (NH4)2SO4, 2 mM MgCl2, 25 units/mL Taq Polymerase with 30 cycles annealing at 60° C. for 1 min., extention at 72° C. for 30 s, and 1 min. 95° C. denaturation.
Cells, cultured as above, were harvested and washed three times with cold PBS and frozen at −80° C. The pellet was resuspended in cold 20 mM HEPES-NaOH buffer containing 10 mM EDTA (pH 7.4), and homogenised with a polytron (Kinematica, AG, Littau, Switzerland) for 10 s at 10000 rpm. After centrifugation for 30 min. at 4° C., the pellet was washed once with the same buffer, and once with cold 20 mM HEPES-NaOH buffer containing 0.1 mM EDTA, (pH 7.4). Protein content was measured using the Pierce method (Socochim, Lausanne, Switzerland) using bovine serum albumin as standard.
After thawing, the membranes were resuspended in cold 50 mM Tris-HCl buffer containing 2 mM MgCl2 and 2 mM CaCl2, (pH 7) (binding buffer). The final concentration of the membranes in the assays was 25 μg protein/mL. Inhibition experiments were performed with membranes incubated with 10 nM [^3H]-LY354740 at room temperature, for 1 hour, in presence of various concentrations of the compound to be tested. Following the incubations, membranes were filtered onto Whatmann GF/C glass fiber filters and washed 5 times with cold binding buffer. Non specific binding was measured in the presence of 10 μM DCG IV. After transfer of the filters into plastic vials containing 10 mL of Ultima-gold scintillation fluid (Packard, Züirich, Switzerland), the radioactivity was measured by liquid scintillation in a Tri-Carb 2500 TR counter (Packard, Züirich, Switzerland).
The inhibition curves were fitted with a four parameter logistic equation giving IC50 values, and Hill coefficients and the Ki values were calculated using the Cheng and Prusoff equation (Cheng, Y. and Prusoff, W. H., Biochem. Pharmacol. 1973, 22, 3099-3108). A small Ki value expresses high affinity of the compound towards the receptor.

| Ki [1] | melting point | SMILES |
| --- | --- | --- |
| 15.5 nM | 206 °C | O=C1CC(c2cccc(-n3nncc3CNC3CC3)c2)=Nc2cc(Cl)c(C(F)(F)F)cc2N1 [Example 67, 7-Chloro-4-[3-(5-cyclopropylaminomethyl-[1,2,3]triazol-1-yl)-phenyl]-8-trifluoromethyl-1,3-dihydro-benzo[b][1,4]diazepin-2-one] |
| 26 nM | 181 °C | Cc1cc2c(cc1C(F)(F)F)NC(=O)CC(c1cccc(-n3nncc3CNC3CC3)c1)=N2 [Example 69, 4-[3-(5-Cyclopropylaminomethyl-[1,2,3]triazol-1-yl)-phenyl]-7-methyl-8-trifluoromethyl-1,3-dihydro-benzo[b][1,4]diazepin-2-one] |
| 70 nM | 235 °C | Cc1cc2c(cc1C(F)(F)F)NC(=O)CC(c1cccc(-n3cccn3)c1)=N2 [Example 77, 7-Methyl-4-(3-pyrazol-1-yl-phenyl)-8-trifluoromethyl-1,3-dihydro-benzo[b][1,4]diazepin-2-one] |
| 6.5 nM | 214 to 217 °C | Cc1cc2c(cc1C(F)(F)F)NC(=O)CC(c1cccc(-c3nc(CO)sc3C)c1)=N2 [Example 84, 4-[3-(2-Hydroxymethyl-5-methyl-thiazol-4-yl)-phenyl]-7-methyl-8-trifluoromethyl-1,3-dihydro-benzo[b][1,4]diazepin-2-one] |

Further lines, the compound ahead of its results:

| SMILES | Ki [1] | melting point |
| --- | --- | --- |
| CCOc1cc2c(cc1C(F)(F)F)NC(=O)CC(c1ccnc(C#N)c1)=N2 [Example 53, 4-(8-Ethoxy-4-oxo-7-trifluoromethyl-4,5-dihydro-3H-benzo[b][1,4]diazepin-2-yl)-pyridine-2-carbonitrile] | 8 nM | 233 °C |
| Cc1cc2c(cc1C(F)(F)F)NC(=O)CC(c1ccnc(C#N)c1)=N2 [Example 58, 4-(8-Methyl-4-oxo-7-trifluoromethyl-4,5-dihydro-3H-benzo[b][1,4]diazepin-2-yl)-pyridine-2-carbonitrile] | 8.5 nM | 235 °C |
| Cc1cc(-c2cccc(C3=Nc4cc(N5CCSCC5)c(C#N)cc4NC(=O)C3)c2)on1 [Example 62, 2-[3-(3-Methyl-isoxazol-5-yl)-phenyl]-4-oxo-8-thiomorpholin-4-yl-4,5-dihydro-3H-benzo[b][1,4]diazepine-7-carbonitrile] | 32.5 nM | 245 °C |
